Test [1] concerns platelet aggregation induced by PAF. The test can be described thus: Test 1: Inhibition of platelet aggregation induced by PAF. It counts as cell-based. The following applies: rabbit platelet rich plasma, aggregation induced by PAF (C₁₈) 16 nM final, Born nephelometric technique, read-out: IC₅₀. The protocol: Test 1: Inhibition of platelet aggregation induced by PAF.
The blood is obtained by cardiac puncture of male New Zealand albino rabbits (between 2 and 2.5 Kg of weight) and coagulatlon is prevented by adding 1 part of 3.16% sodium citrate dihydrate in 9 parts of blood. The platelet rich plasma (PRP) is prepared by blood centrifugation at 250xg for 10 min. at 4°C and it is diluted with platelet poor plasma (PPP) obtained by additional centrifugation at 3000xg for 10 min. The amount of platelets is adjusted to […]. The platelet aggregation induced by PAF (C₁₈, prepared in our laboratory) (16 nM, final) is determined by the Born nephelometric technique (J. Physiol., 1962 162, 67) using a aggregometer Chrono-log 500. The activities of the inhibitors are expressed as IC₅₀, that is to say the concentration of the drug needed to inhibit the platelet aggregation in a 50%.

The subject of test [2] is hypotension induced by PAF. The experiment in a line: Test 2: Inhibition of the hypotensive effect induced by PAF in normotense rats. The following applies: anesthetized male Sprage Dawley rats; compounds given through the femoral vein 3 min. before PAF (0.5 mcg/Kg, i.v.); average arterial pressure. It counts as in vivo. The protocol: Test 2 - Inhibition of the hypotensive effect induced by PAF in normotense rats. Male Sprage Dawley rats, of 180-220 g of weight, anesthetized with sodium pentobarbital (50 mg/Kg, i.p. 1 mL/100 g) have been used. In order to measure the average arterial pressure, a polyethylene catheter is introduced into the carotid artery. The arterial pressure is recorded with the help of a transducer connected with a […] Beckman polygraph. […]

Each structure is given as a SMILES string. Where two headings read alike, the source gives them in different places.

`CCCCCCCCCCCCCCCC1CCC(COC(=O)N(Cc2cccc[n+]2CC)C(C)=O)O1` (mixture of isomers) [Compound 11, (±)-cis,trans-2-[N-acetyl-N-[((5-pentadecyl-2-tetrahydrofuranyl)methoxy)carbonyl]aminomethyl]-1-ethylpyridinium iodide]: in test [1] (Oryctolagus cuniculus), the IC50 is 95 nM. In addition, in test [2], the CI₅₀ was 0,15 mg/Kg,i.v.
For `CCCCCCCCCCCCCCCCOCC1CCC(COC(=O)N(Cc2cccc[n+]2CC)C(C)=O)O1` (mixture of isomers) [Compound 25, (±)-cis,trans-2-[N-acetyl-N-[((5-((hexadecyloxy)methyl)-2-tetrahydrofuranyl)methoxy)carbonyl]aminomethyl]-1-ethylpyridinium iodide], in test [1] (Oryctolagus cuniculus), the IC50 came to 74 nM. Besides, in test [2], the CI₅₀ is given as 0,036 mg/Kg,i.v.
For `CCCCCCCCCCCCCCCNC(=O)OCC1CCC(COC(=O)N(Cc2cccc[n+]2CC)C(C)=O)O1` (mixture of isomers) [Compound 19, (±)-cis,trans-2-[N-acetyl-N-[((5-(((N-pentadecylcarbamoyl)oxy)methyl)-2-tetrahydrofuranyl)methoxy)carbonyl]aminomethyl] -1-ethylpiridinium iodide], in that order: 54 nM and 0,098 mg/Kg,i.v.
In the case of `CCCCCCCCCCCCCCCCC[C@@H]1CC[C@H](COC(=O)N(Cc2cccc[n+]2CC)C(C)=O)O1.[Cl-]` (racemic) [Compound 4, (±)-cis,trans-2-[N-acetyl-N-[((5-heptadecyl-2-tetrahydrofuranyl)methoxy)carbonyl]aminomethyl]-1-ethylpiridinium chloride], the IC50 in test [1] was determined as 190 nM. In test [2], the CI₅₀ is 0,19 mg/Kg,i.v.
Consider `CCCCCCCCCCCCCCCCCNC(=O)OCC1CCC(COC(=O)N(Cc2cccc[n+]2CC)C(C)=O)O1` (mixture of isomers) [Compound 16, (±)-cis,trans-2-[N-acetyl-N-[((5-(((N-heptadecylcarbamoyl)oxy)methyl)-2-tetrahydrofuranyl)methoxy)carbonyl]aminomethyl] -1-ethylpiridinium iodide], for which the IC50 in test [1] (Oryctolagus cuniculus) worked out at 40 nM. In addition, the CI₅₀ in test [2] was 0,064 mg/Kg,i.v.
Turning to `CCCCCCCCCCCCCCCCCC1CCC(COC(=O)N(Cc2cccc[n+]2C)C(C)=O)O1` (mixture of isomers) [Compound 5, (±)-cis,trans-2-[N-acetyl-N-[((5-heptadecyl-2-tetrahydrofuranyl)methoxy)carbonyl]aminomethyl]-1-methylpiridinium iodide], the IC50 in test [1] (Oryctolagus cuniculus) turned out to be 1100 nM. Besides, the CI₅₀ in test [2] is listed as 0,8 mg/Kg,i.v.
Regarding `CCCCCCCCCCCCCCCCC[C@@H]1CC[C@H](COC(=O)N(Cc2cccc[n+]2CC)C(C)=O)O1.[I-]` (racemic) [Compound 3, (±)-cis,trans-2-[N-acetyl-N-[((5-heptadecyl-2-tetrahydrofuranyl)methoxy)carbonyl]aminomethyl]-1-ethylpiridinium iodide], the IC50 in test [1] came to 71 nM. The CI₅₀ in test [2] is reported as 0,15 mg/Kg,i.v.
Regarding `CCCCCCCCCCCCCCCCCC1CCC(COC(=O)N(Cc2cccc[n+]2CC)C(=O)OCC)O1` (mixture of isomers) [Compound 7, (±)-cis,trans-2-[N-ethoxycarbonyl-N-[((5-heptadecyl-2-tetrahydrofuranyl)methoxy)carbonyl]aminomethyl]-1-ethylpyridinium iodide], the IC50 in test [1] (Oryctolagus cuniculus) is 130 nM. In addition, the CI₅₀ in test [2] is 0,34 mg/Kg,i.v.
On to `CCCCCCCCCCCCCCCC1CCC(COC(=O)CCCCC[n+]2ccsc2)O1` (mixture of isomers) [Compound 12, (±)-cis,trans-3-[6-[(5-pentadecyl-2-tetrahydrofuranyl)methoxy]-6-oxohexyl] tiazolium 4-methylbenzenesulfonate], for which the IC50 in test [1] (Oryctolagus cuniculus) worked out at 3100 nM.
Same read-out and setting: under `CCCCCCCCCCCCCCCC1CCC(COCCCCCC[n+]2ccsc2)O1` (mixture of isomers) [Compound 13, (±)-cis,trans-3-[6-[(5-pentadecyl-2-tetrahydrofuranyl)methoxy]hexyl]tiazolium 4-methylbenzenesulfonate] stands 1300 nM.

(Values after patent EP0353777A2, “New 2,5-disubstituted tetrahydrofuran derivatives” (J. URIACH & CIA. S.A., priority 1988, dated 1990).)
